Target: GluA1o-γ8 (GRIA1o-CACNG8 fusion construct) (Homo sapiens (Human), UniProt P42261+Q8WXS5)
Experiment: Calcium flux assay (FLIPR), inhibition of TARP γ8 dependent AMPA receptor activity
Assay type: cell-based
Conditions: GluA1o-γ8 (GRIA1o-CACNG8 fusion) in HEK293 cells, calcium flux after 15 μM glutamate
Outline: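 HEK293 cells stably expressing a 1:1 GRIA1o–CACNG8 fusion were loaded with Calcium-5/6 dye plus compound in pH 7.4 HEPES-buffered saline. FLIPR calcium flux after 15 μM glutamate was normalized to untreated and 10 μM CP465022 controls, and a four-parameter logistic fit gave pIC50.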

Sequence of GluA1o-γ8 (GRIA1o-CACNG8 fusion construct) (P42261 other isoform, or with tags, fused parts or gaps): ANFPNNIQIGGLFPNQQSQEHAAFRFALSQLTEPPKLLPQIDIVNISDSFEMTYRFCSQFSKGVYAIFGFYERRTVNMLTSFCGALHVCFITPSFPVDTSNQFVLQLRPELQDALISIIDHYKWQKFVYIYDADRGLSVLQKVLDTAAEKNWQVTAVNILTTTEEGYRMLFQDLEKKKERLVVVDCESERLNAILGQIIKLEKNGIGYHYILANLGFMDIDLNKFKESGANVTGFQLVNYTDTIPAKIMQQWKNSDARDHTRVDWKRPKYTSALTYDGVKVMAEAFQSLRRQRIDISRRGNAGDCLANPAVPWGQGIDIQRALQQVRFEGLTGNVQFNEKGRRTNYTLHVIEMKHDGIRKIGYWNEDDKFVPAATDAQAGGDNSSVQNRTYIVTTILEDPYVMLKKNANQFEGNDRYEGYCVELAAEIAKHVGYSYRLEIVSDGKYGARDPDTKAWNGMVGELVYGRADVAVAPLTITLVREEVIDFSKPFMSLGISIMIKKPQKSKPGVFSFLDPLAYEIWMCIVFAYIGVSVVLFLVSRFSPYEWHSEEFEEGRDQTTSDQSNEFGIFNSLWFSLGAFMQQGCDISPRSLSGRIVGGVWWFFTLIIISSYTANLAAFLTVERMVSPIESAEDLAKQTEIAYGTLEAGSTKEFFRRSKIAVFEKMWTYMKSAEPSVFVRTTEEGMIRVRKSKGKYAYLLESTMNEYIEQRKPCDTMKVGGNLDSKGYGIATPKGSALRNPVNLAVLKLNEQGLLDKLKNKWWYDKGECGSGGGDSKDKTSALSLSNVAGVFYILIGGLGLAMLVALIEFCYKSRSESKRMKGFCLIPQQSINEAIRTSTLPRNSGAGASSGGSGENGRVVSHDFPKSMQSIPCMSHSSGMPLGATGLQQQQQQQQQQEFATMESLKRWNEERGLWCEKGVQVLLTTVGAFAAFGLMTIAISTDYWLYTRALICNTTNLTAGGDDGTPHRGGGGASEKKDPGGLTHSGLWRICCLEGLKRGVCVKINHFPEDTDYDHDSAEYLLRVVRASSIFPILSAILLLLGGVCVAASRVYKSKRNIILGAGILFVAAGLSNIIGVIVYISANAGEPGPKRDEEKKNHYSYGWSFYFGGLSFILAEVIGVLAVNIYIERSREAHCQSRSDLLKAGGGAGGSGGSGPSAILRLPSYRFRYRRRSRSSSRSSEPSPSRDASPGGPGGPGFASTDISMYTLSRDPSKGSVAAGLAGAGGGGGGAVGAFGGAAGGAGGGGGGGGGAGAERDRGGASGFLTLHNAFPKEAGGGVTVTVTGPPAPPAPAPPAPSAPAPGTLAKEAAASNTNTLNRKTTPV

| IC50 [nM] | SMILES |
| --- | --- |
| 25.1 | OCc1cc2ccc(C(F)(F)F)nc2n1-c1ccc2[nH]ncc2c1 [Example 330, (1-(1H-Indazol-5-yl)-6-(trifluoromethyl)-1H-pyrrolo[2,3-b]pyridin-2-yl)methanol] |
| 0.01 | Cc1cc(-n2c(C)cc3ccc(C(F)(F)F)nc32)cc2c1NC(=O)C2 [Example 331, 7-Methyl-5-(2-methyl-6-(trifluoromethyl)-1H-pyrrolo[2,3-b]pyridin-1-yl)indolin-2-one] |
| 1 | Cc1nc2ccc(C(F)(F)F)nc2n1-c1cc(Cl)c2c(c1)CC(=O)N2 [Example 313, 7-Chloro-5-[2-methyl-5-(trifluoromethyl)imidazo[4,5-b]pyridin-3-yl]indolin-2-one] |
| 15.8 | Fc1ccc(-c2cc3ccc(Cl)nc3n2-c2ccc3[nH]ccc3c2)cc1 [Example 385, 6-Chloro-2-(4-fluorophenyl)-1-(1H-indol-5-yl)pyrrolo[2,3-b]pyridine] |
| 3160 | Cc1cc2ccc(C(F)(F)F)nc2n1-c1cc(F)c2c(c1)CC(=O)N2 [Example 364, 7-Fluoro-5-[2-methyl-6-(trifluoromethyl)pyrrolo[2,3-b]pyridin-1-yl]indolin-2-one] |
| 31.6 | CC(C)c1nc2ccc(C(F)(F)F)nc2n1-c1cnc2[nH]ccc2c1 [Example 303, 2-Isopropyl-3-(1H-pyrrolo[2,3-b]pyridin-5-yl)-5-(trifluoromethyl)imidazo[4,5-b]pyridine] |
| 6.31 | Fc1ccc(-c2cc3ccc(C(F)(F)F)nc3n2-c2ccc3[nH]ccc3c2)cc1 [Example 387, 2-(4-Fluorophenyl)-1-(1H-indol-5-yl)-6-(trifluoromethyl)pyrrolo[2,3-b]pyridine] |
| 15.8 | Cc1cc(-n2c(C(C)C)nc3ccc(C(F)(F)F)nc32)cc2[nH]ncc12 [Example 311, 2-Isopropyl-3-(4-methyl-1H-indazol-6-yl)-5-(trifluoromethyl)imidazo[4,5-b]pyridine] |
| 0.251 | Cc1ccc2cc(C(C)C)n(-c3ccc4c(c3)CC(=O)N4)c2n1 [Example 342, 5-(2-Isopropyl-6-methyl-pyrrolo 2,3-bpyridin-1-yl)indolin-2-one] |
| 31.6 | COC(C)c1cc2cccnc2n1-c1cc(C)c2c(c1)CC(=O)N2 (racemic) [Example 368, (RS)-5-[2-(1-Methoxyethyl)pyrrolo[2,3-b]pyridin-1-yl]-7-methyl-indolin-2-one] |
| 501 | Fc1ccc(-c2cc3cccnc3n2-c2ccc3c(c2)CCN3)cc1 [Example 344, 2-(4-Fluorophenyl)-1-indolin-5-yl-pyrrolo[2,3-b]pyridine] |
| 0.631 | FC(F)(F)c1cnc2c(c1)nc(C(F)(F)F)n2-c1cc(Cl)c2[nH]ncc2c1 [Example 419, 3-(7-Chloro-1H-indazol-5-yl)-2,6-bis(trifluoromethyl)-3H-imidazo[4,5-b]pyridine] |

The remaining lines, values behind:

| SMILES | IC50 [nM] |
| --- | --- |
| O=c1[nH]c2ccc(-n3c(C4CC4)nc4ccc(C(F)(F)F)nc43)cc2s1 [Example 41, 6-[2-Cyclopropyl-5-(trifluoromethyl)imidazo[4,5-b]pyridin-3-yl]-3H-1,3-benzothiazol-2-one] | 0.398 |
| O=c1[nH]c2ccc(-n3c(-c4ccc(C(F)F)cc4)nc4cccnc43)cc2s1 [Example 68, 6-[2-[4-(Difluoromethyl)phenyl]imidazo[4,5-b]pyridin-3-yl]-3H-1,3-benzothiazol-2-one] | 25.1 |
| FC(F)(F)c1ccc2nc(C3CC3)n(-c3ccc4[nH]ncc4c3)c2n1 [Example 43, 2-Cyclopropyl-3-(1H-indazol-5-yl)-5-(trifluoromethyl)imidazo[4,5-b]pyridine] | 2 |
| Cc1cc(-n2c3nc(C(F)(F)F)ccc3nc2[C@H]2C[C@H](F)C2)cc2cn[nH]c12 [Example 247, 2-(3-Fluorocyclobutyl)-3-(7-methyl-1H-indazol-5-yl)-5-(trifluoromethyl)imidazo[4,5-b]pyridine] | 0.0631 |
| Fc1ccc(-c2nc3c(N4CCOCC4)ccnc3n2-c2ccc3[nH]ncc3c2)cc1 [Example 62, 4-[2-(4-Fluorophenyl)-3-(1H-indazol-5-yl)imidazo[4,5-b]pyridin-7-yl]morpholine] | 6.31 |
| COc1nc2ccc(C(F)(F)F)nc2n1-c1cc(C)c2[nH]ncc2c1 [Example 241, 2-Methoxy-3-(7-methyl-1H-indazol-5-yl)-5-(trifluoromethyl)imidazo[4,5-b]pyridine] | 0.398 |
| CC(C)(C)c1ccc2nc(C(F)(F)F)n(-c3ccc4[nH]ncc4c3)c2n1 [Example 171, 5-tert-Butyl-3-(1H-indazol-5-yl)-2-(trifluoromethyl)imidazo[4,5-b]pyridine] | 3.16 |
| CC(C)c1nc2ccc(C(F)F)nc2n1-c1ccc2c(c1)CC(=O)N2 [Example 141, 5-[5-(Difluoromethyl)-2-isopropyl-imidazo[4,5-b]pyridin-3-yl]indolin-2-one] | 1.26 |
| Fc1ccc(-c2nc3ccc(C(F)(F)F)nc3n2-c2ccc3[nH]ncc3c2)nc1 [Example 169, 2-(5-Fluoro-2-pyridyl)-3-(1H-indazol-5-yl)-5-(trifluoromethyl)imidazo[4,5-b]pyridine] | 3.16 |
| OC/C=C/c1cc(-n2c(C(F)(F)F)nc3ccc(C(F)(F)F)nc32)cc2cn[nH]c12 [Example 219, (E)-3-(5-(2,5-Bis(trifluoromethyl)-3H-imidazo[4,5-b]pyridin-3-yl)-1H-indazol-7-yl)prop-2-en-1-ol] | 15.8 |
| Cc1cccc(-c2nc3ccc(C(F)(F)F)nc3n2-c2ccc3[nH]ncc3c2)c1 [Example 122, 3-(1H-Indazol-5-yl)-2-(m-tolyl)-5-(trifluoromethyl)imidazo[4,5-b]pyridine] | 0.316 |
| O=C1Cc2cc(-n3c(-c4ccc(F)cc4)nc4cccnc43)ccc2N1 [Example 23, 5-[2-(4-Fluorophenyl)imidazo[4,5-b]pyridin-3-yl]indolin-2-one] | 25.1 |
| O=c1[nH]c2c(Cl)cc(-n3c(C(F)(F)F)nc4ccc(C(F)(F)F)nc43)cc2s1 [Example 282, 6-[2,5-Bis(trifluoromethyl)imidazo[4,5-b]pyridin-3-yl]-4-chloro-3H-1,3-benzothiazol-2-one] | 0.0316 |
| FC(F)(F)c1ccc2nc(C(F)(F)F)n(-c3cc(Cl)c4cn[nH]c4c3)c2n1 [Example 265, 3-(4-Chloro-1H-indazol-6-yl)-2,5-bis(trifluoromethyl)imidazo[4,5-b]pyridine] | 126 |
| O=C1Cc2cc(-n3c(C4CCOC4)nc4ccc(C(F)(F)F)nc43)ccc2N1 (racemic) [Example 52, (racemic)-5-[2-Tetrahydrofuran-3-yl-5-(trifluoromethyl)imidazo[4,5-b]pyridin-3-yl]indolin-2-one] | 20 |
| O=c1[nH]c2ccc(-n3c(C4CCC4)nc4ccc(C(F)(F)F)nc43)cc2o1 [Example 80, 6-[2-Cyclobutyl-5-(trifluoromethyl)imidazo[4,5-b]pyridin-3-yl]-3H-1,3-benzoxazol-2-one] | 2 |
| O=C1Cc2ccc(-n3c(C4CC4)nc4ccc(C(F)(F)F)nc43)cc2N1 [Example 297, 6-[2-Cyclopropyl-5-(trifluoromethyl)imidazo[4,5-b]pyridin-3-yl]indolin-2-one] | 1000 |
| CCOc1nc2ccc(C(F)(F)F)nc2n1-c1ccc2c(c1)CC(=O)N2 [Example 243, 5-[2-Ethoxy-5-(trifluoromethyl)imidazo[4,5-b]pyridin-3-yl]indolin-2-one] | 15.8 |
| O=c1[nH]c2ccc(-n3c(-c4ccc(F)cc4)nc4cccnc43)cc2s1 [Example 20, 6-[2-(4-Fluorophenyl)imidazo[4,5-b]pyridin-3-yl]-3H-1,3-benzothiazol-2-one] | 5.01 |
| CC(C)c1ccc2nc(-c3ccc(F)cc3)n(-c3ccc4[nH]ncc4c3)c2n1 [Example 120, 2-(4-Fluorophenyl)-3-(1H-indazol-5-yl)-5-isopropyl-imidazo[4,5-b]pyridine] | 0.0501 |
| Cc1ccc2nc(C3CC3)n(-c3ccc4[nH]c(=O)sc4c3)c2n1 [Example 143, 6-(2-Cyclopropyl-5-methyl-imidazo[4,5-b]pyridin-3-yl)-3H-1,3-benzothiazol-2-one] | 1 |
| CCOc1nc2ccc(C(F)(F)F)nc2n1-c1ccc2[nH]nc(F)c2c1 [Example 196, 2-Ethoxy-3-(3-fluoro-1H-indazol-5-yl)-5-(trifluoromethyl)imidazo[4,5-b]pyridine] | 25.1 |
| Cc1ccc2nc(-c3ccccc3)n(-c3ccc4[nH]c(=O)sc4c3)c2n1 [Example 17, 6-(5-Methyl-2-phenyl-imidazo[4,5-b]pyridin-3-yl)-3H-1,3-benzothiazol-2-one] | 0.501 |
| CC(C)c1nc2ccc(C(F)F)nc2n1-c1cc(Cl)c2[nH]ncc2c1 [Example 269, 3-(7-Chloro-1H-indazol-5-yl)-5-(difluoromethyl)-2-isopropyl-imidazo[4,5-b]pyridine] | 0.0316 |
| CN(C)c1ccc2nc(-c3ccccc3)n(-c3ccc4[nH]c(=O)sc4c3)c2n1 [Example 66, 6-[5-(Dimethylamino)-2-phenyl-imidazo[4,5-b]pyridin-3-yl]-3H-1,3-benzothiazol-2-one] | 12.6 |
| CCOCc1nc2ccc(C(F)(F)F)nc2n1-c1ccc2[nH]c(=O)oc2c1 [Example 162, 6-[2-(Ethoxymethyl)-5-(trifluoromethyl)imidazo[4,5-b]pyridin-3-yl]-3H-1,3-benzoxazol-2-one] | 631 |
| FC(F)(F)c1nc2ccc(Cl)nc2n1-c1ccc2[nH]ncc2c1 [Example 192, 5-Chloro-3-(1H-indazol-5-yl)-2-(trifluoromethyl)imidazo[4,5-b]pyridine] | 2.51 |
| CC(F)(F)c1nc2ccc(C(F)(F)F)nc2n1-c1ccc2[nH]ncc2c1 [Example 116, 2-(1,1-Difluoroethyl)-3-(1H-indazol-5-yl)-5-(trifluoromethyl)imidazo[4,5-b]pyridine] | 2 |
| Cc1nc2ccc(C(F)(F)F)nc2n1-c1ccc2[nH]ncc2c1 [Example 98, 3-(1H-Indazol-5-yl)-2-methyl-5-(trifluoromethyl)imidazo[4,5-b]pyridine] | 63.1 |
